# Measured values reported in patent US20250282764A1, “IMIDAZOLE HETEROCYCLE BASED COMPOUNDS AND METHODS OF TREATING CANCER” (King Abdulaziz University, priority 2024, published 2025).
# Read-outs that look alike come from different tables or passages of the source.
# How the values were obtained:
# HT29 = assay: CellTiter-Blue cell viability assay, HT29; type: cell-based, human; conditions: 50% cell viability vs untreated, mean of triplicates
# Procedure: Cell culture of colorectal carcinoma cell lines was performed as follows. DLD-1, HCT116, and HT-29 cells were purchased from CLS Cell Line Service GmbH (Eppelheim, Germany) and cultured in Dulbecco's Modified Eagle Medium (DMEM) high glucose, GlutaMAX™ Supplement, pyruvate (Thermo Fisher Scientific, Paisley, UK) supplemented with 10% fetal bovine serum (FBS; Thermo Fisher Scientific), 200 U/mL penicillin, and 200 μg/ml streptomycin (Thermo Fisher Scientific), at 37° C. with 5% CO2 in a humidified incubator.
# The CellTiter®-Blue Cell Viability assay was acquired from Promega Corporation (Madison, WI, USA). Cell viability assay was performed as follows: DLD-1 (4×10^3/well), HCT116 (4×10^3/well), and HT-29 (7×10^3/well) were incubated with a concentration gradient of compound (Id) ranging from 0.01 to 20 μM, in 96-well plates for 48 h at 37° C. Subsequently, 20 μl CellTiter®-Blue Cell Viability reagent was added to each well and incubated for an additional 2 h for the development of fluorescence. The fluorescence emission was measured at 590 nm using a SpectraMax® i3× Multi-Mode microplate reader (Molecular Devices, LLC, San Jose, CA, USA) and plotted against drug concentrations to determine the mean inhibitory concentration of compound (Id) producing 50% decrease in cell viability (IC50). Experiments were performed in triplicates.
# HL60 = assay: CellTiter-Blue cell viability assay, HL60; type: cell-based, human; conditions: 48 h, mean of triplicates
# Procedure: (§1) Cell culture of leukemia cell lines model was performed as follows. HL60, K562, and NB4 cell lines were purchased from CLS Cell Line Service GmbH (Eppelheim, Germany). MV4-11 cell line was purchased from American Type Culture Collection (ATCC; Virginia, USA). KG1α also referred to as KG1a was a gift from Prof. Ghulam Mufti (King College London, UK). Kasumi-1 cell line was purchased from Nawah Scientific (Cairo, Egypt). All cell lines were cultured in Roswell Park Memorial Institute-1640 (RPMI-1640) culture medium supplemented with 10% fetal bovine serum (FBS) (Thermo Fisher Scientific) and 0.1% ciprofloxacin (10 μg/ml; Cipla Limited; Mumbai, India). Cells were maintained in a humidified incubator at 37° C. with 5% CO2.
# (§2) Cell viability was determined using the CellTiter-Blue® Cell Viability Assay kit (Promega, Madison, WI, USA). Approximately […] were plated in 96 well plate in the presence of increasing drug concentration in triplicate and incubated for 48 h at 37° C. in a humidified incubator. After the incubation period, 20 μL of the cell titer blue reagent was added to each well and the plate was incubated for additional 2 h for the development of florescence. Florescence was measured at 540Ex/590Em on SpectraMax i3 Multi-Mode Microplate Reader (Molecular Devices, LLC; San Jose, CA, USA). […]
# MV4-11 = assay: CellTiter-Blue cell viability assay, MV4-11; type: cell-based, human; conditions: 48 h, mean of triplicates
# Procedure: as §1, §2
# Kasumi-1 = assay: CellTiter-Blue cell viability assay, Kasumi-1; type: cell-based, human; conditions: 48 h, mean of triplicates
# Procedure: as §1, §2
# NB4 = assay: CellTiter-Blue cell viability assay, NB4; type: cell-based, human; conditions: 48 h, mean of triplicates
# Procedure: as §1, §2
# KG1a = assay: CellTiter-Blue cell viability assay, KG1a; type: cell-based, human; conditions: 48 h, mean of triplicates
# Procedure: as §1, §2
# [1] = Stability in mouse liver microsomes; type: in vitro ADME
# Procedure: (§3) The clearance of compound (Id) in mouse or human liver microsomes was determined at 37° C. Both mouse and human liver microsomes were obtained from Merck KGaA, (Darmstadt, Germany), Cat. No. M9441 (Mouse liver microsomes) and M0317 (Human liver microsomes). Assays were conducted in triplicate in 96-deep well polypropylene plates. […] At five time points, reaction mixture aliquots were transferred to 96-shallow well stop plates on ice containing acetonitrile with 0.1 μM propafenone. […] Standard curves for test compounds were generated using 5 concentrations in triplicate that were processed as above but with zero incubation time. Stop plates were centrifuged at 2000 g for 10 min and then supernatant aliquots were transferred to a Waters Aquity® UPLC 700 μL 96-well sample plate with cap mat (Waters, Milford, MA). The amount of compound remaining in the supernatant was quantified by LC/MS/MS using a Waters Xevo TQ MS (electrospray positive mode) coupled to a Waters Aquity® UPLC (BEH column, C18). Propafenone was used as the internal standard. GraphPad® Prism v 5.04 was used for nonlinear fitting of time course data to generate t1/2 values.
# [2] = Stability in human liver microsomes; type: in vitro ADME
# Procedure: as §3
# [3] = Stability in mouse plasma; type: in vitro ADME; conditions: for Mouse Plasma Stability t1/2: 1 μM, 37° C.
# Procedure: Stability in mouse plasma was tested as follows. The assay was conducted at 37° C. in triplicate. Test compound or procaine (positive control) was tested at a final concentration of 1 μM in either 2.5% DMSO/CD-1 mouse plasma (Innovative Research, Novi, MI; sodium heparin added as anticoagulant; pH adjusted to 7.4 with 2N HCl on day of use) or 2.5% DMSO/PBS (pH 7.4:136.9 mM NaCl, 2.68 mM KCl, 8.1 mM Na2HPO4, 1.47 mM KH2PO4, 0.9 mM CaCl2, 0.49 mM MgCl2). At seven time points, reaction mixture aliquots were transferred to 96-shallow well stop plates on ice containing acetonitrile with 0.1 μM propafenone. Samples were analyzed by LC/MS/MS on a Waters Xevo TQ instrument as described above using positive electrospray ionization. Assay acceptance criteria was 20% for all standards and 25% for the LLOQ. GraphPad® Prism v. 5.04 was used for nonlinear fitting of data to generate t1/2 values.
# [4] = without NADPH, percent remaining after 60 min incubation
# [5] = without NADPH, percent remaining after 60 min incubation, listed as compound (Id)
# [6] = human liver microsomes, in presence of NADPH, 37° C.
structure (smiles),measurement,setting,value
"CC1=N/C(=C\c2ccc(C)o2)C(=O)N1c1ccc(CC(=O)NCc2ccccc2)cc1 [Compound (Id), 2-Methyl-4-(5-methyl-2-furyl)methylene-1-[4-(benzylaminocarbonylmethyl)phenyl]-5-oxo-1H-imidazole]",IC50,HT29; 48 h,1.34 µM
same,IC50,"HT29; Homo sapiens, HT-29, 48 h",1.34 µM
same,IC50,"HL60; Homo sapiens, HL-60",0.443 µM
same,IC50,"MV4-11; Homo sapiens, MV4-11",0.254 µM
same,IC50,"Kasumi-1; Homo sapiens, Kasumi 1",0.221 µM
same,IC50,"NB4; Homo sapiens, NB-4",0.189 µM
same,IC50,"KG1a; Homo sapiens, KG-1a",0.488 µM
same,half-life,"[1]; male, CD-1, mouse liver microsomes, in presence of NADPH, 37° C., read-out: Stability MLM t1/2",16.6 min
same,Mic. Ctrl. Mouse % @60 min,[1]; [4],90%
same,Mic. Ctrl. Mouse % @60 min,[1]; [5],did not change
same,Stability HLM t1/2,[2]; [6],30.3 min
same,half-life,"[2]; human, liver microsomes, human liver microsomes, in presence of NADPH, 37° C., read-out: Stability HLM t1/2",30 min
same,Mic. Ctrl. Human % @60 min,[2]; [4],118%
same,Mic. Ctrl. Human % @60 min,[2]; [5],did not change
same,Mouse Plasma Stability t1/2,[3],>300 min
same,half-life at 1 μM,"[3]; CD-1, mouse, plasma, pH 7.4, 37° C., read-out: Mouse Plasma Stability t1/2",> 300 min
"COc1ccc(/C=C2\N=C(C)N(c3ccc(CC(=O)NCc4ccccc4)cc3)C2=O)cc1 [KIM-161, reference compound]",IC50,HT29; 48 h,1.84 µM
same,IC50,HL60,0.238 µM
same,IC50,MV4-11,0.361 µM
same,IC50,Kasumi-1,0.166 µM
same,IC50,NB4,0.148 µM
same,IC50,KG1a,0.283 µM
same,Mic. Ctrl. Mouse % @60 min,[1],112%
same,Stability MLM t1/2,"[1]; mouse liver microsomes, in presence of NADPH, 37° C.",14.8 min
same,Mic. Ctrl. Human % @60 min,[2],113%
same,Stability HLM t1/2,[2]; [6],22.9 min
same,Mouse Plasma Stability t1/2,[3],>300 min
